Measured values: patent US12202805B2, “Process for preparing (5S)-{[2-(4-carboxyphenyl)ethyl] |2-(2-{|3-chloro-4'-(trifluoromethyl)biphenyl-4-yl]methoxy}phenyl)ethyl]aminol-5,6,7,8-tetrahydroquinoline-2-carboxylic acid and its crystalline forms for use as pharmaceutically active compound” (Bayer Aktiengesellschaft, priority 2021, dated 2025)

How the values were obtained:
[1] = system: thromboxane A2 challenged PAH-minipig; experiment: Haemodynamics in the anesthetized thromboxane challenged minipig, intratracheal dry powder (PAP, BP); format: in vivo, Göttingen Minipigs
Experimental: (§1) Healthy Göttingen Minipigs® Ellegaard (Ellegaard, Denmark) of both sexes and having a weight of 2-6 kg were used. The animals were sedated by i.m. administration of about 25 mg/kg ketamine and about 10 mg/kg azaperone. Anaesthesia was initiated by i.v. administration of about 2 mg/kg ketamine and about 0.3 mg/kg midazolam. Maintenance of anaesthesia was by i.v. administration of about 7.5-30 mg/kg/h ketamine and about 1-4 mg/kg/h midazolam (rate of infusion 1-4 ml/kg/h) and about 150 μg/kg/h pancuronium bromide (for example Pancuronium-Actavis). After intubation, the animals were ventilated by the ventilator at a constant respiratory volume (10-12 ml/kg, 35 breaths/min; Avea®, Viasys Healthcare, USA, or Engström Carestation, GE Healthcare, Freiburg, Germany) such that an end-tidal CO2 concentration of about 5% was achieved. Ventilation was performed with room air, enriched with about 40% oxygen (normoxia). For the measurement of the haemodynamic parameters such as pulmonary arterial pressure (PAP), blood pressure (BP) and heart rate (HR), catheters were inserted into the carotid artery to measure the blood pressure, and a Swan-Ganz® catheter was introduced in a flow-directed manner via the jugular vein into the pulmonary artery. The haemodynamic signals were recorded and evaluated by means of pressure transducers (Combitransducer, B. Braun, Melsungen, Germany)/amplifiers and Ponemah® as data acquisition software.
As reference pure Lactose vehicle was applied in the beginning of each experiment.

[2] = system: thromboxane A2 challenged PAH-minipig; experiment: Haemodynamics in the anesthetized thromboxane challenged minipig, inhaled nebulized solution (PAP, BP); format: in vivo, Göttingen Minipigs
Experimental: E-1 Haemodynamics in the Anesthetized Thromboxane Challenged Minipig
Lung Selectivity and Duration of Action
as §1
After the instruments have been placed into the animals, continuous infusion of a thromboxane A2 analog was initiated to increase the pulmonary arterial pressure. About 0.3-0.75 μg/kg/min of 9,11-didesoxy-9α,11α-epoxymethanoprostaglandine F2α (U-44069; Sigma, cat. no. D0400, or Cayman Chemical Company, cat. no. 16440), dissolved in physiological saline, were infused to achieve an increase of the mean pulmonary arterial pressure to values of over 25 mmHg. 30 minutes after the start of the infusion, a plateau was reached, and the experiment was started.
The test substances were administered as i.v. infusion or by inhalation. For the preparation of the solution for inhalation, the following procedure was adopted: For an animal having a weight of 4 kg, to prepare the stock solution (300 μg/kg), 1.2 mg of the test compound were weighed out and dissolved in a total volume of 3 ml (1% DMSO, 99% 0.2% strength citric acid solution, 1 n aqueous sodium hydroxide solution to adjust the pH to 8). The solution was then diluted to the concentration employed using 0.2% strength citric acid which had been adjusted to pH 8 beforehand with aqueous sodium hydroxide solution. In each test, 3 ml of the solution of test compound per 4 kg animal were nebulized in the inhalation arm of the respiratory circuit using the Aeroneb® Pro nebulizer system. The mean nebulization time was about 7 min from the start of the nebulization.
With respect to a prediction of the duration of action for human studies comparative example 11 was compared in the PAH minipig model after inhaled application to Ventavis® (=Iloprost, 10 μg/kg nominal dose), which we used as a clinical reference. […] Therefore, the duration of action is more than 6 times longer compared to Ventavis in this preclinical animal model.

[3] = Micronization in spiral jet mill: solid form (XRPD) and particle size distribution; format: physicochemical; conditions: for PSD X10 / PSD X50 / PSD X90: dry measurement 4 bar
From the text: For inhalative drug products it is important to guarantee a homogeneous drug substance with defined particle size <5 μm to secure delivery to the deep lung compartments. This technical requirement can be afforded by micronization of the drug substance particles.
Generally no amorphization even partial nor form conversion should happen during the necessary micronization step.
The corresponding batches (examples 8a-8 d) were micronized using a 50 mm spiral jet mill and pressurized nitrogen with the following parameters (see table 16b).
The corresponding batches were micronized using a 100 mm spiral jet mill and pressurized nitrogen with the following parameters (see table 16c).
All measurements cited in the above tables were obtained by laser diffraction with dry dispersion using compressed air. Measuring in aqueous suspension with surfactants may lead to smaller particle sizes (×90 up to 1 μm smaller).

[4] = PTFE coated jet mill, 25° C., 4.5/4.0 bar, 4.5 g/min
[5] = VA jet mill 50 mm, 25° C., 4.5/4.0 bar, 4.5 g/min
[6] = VA jet mill (low stress conditions), −65° C., 4.5/3.0 bar, 10.6 g/min
[7] = VA jet mill, −65° C., 4.5/4.0 bar, 5.5 g/min
[8] = after micronization, 100 mm spiral jet mill, monohydrate I as starting material

Structure (SMILES): O=C(O)c1ccc(CCN(CCc2ccccc2OCc2ccc(-c3ccc(C(F)(F)F)cc3)cc2Cl)[C@H]2CCCc3nc(C(=O)O)ccc32)cc1 [comparative example 11, (5S)-5-{[2-(4-carboxyphenyl)ethyl][2-(2-{[3-chloro-4′-(trifluoromethyl)[biphenyl]-4-yl]methoxy}phenyl)ethyl]amino}-5,6,7,8-tetrahydroquinoline-2-carboxylic acid]
- MED ([1]; dry powder i.t., lower doses not applicable): ≤ 7.5 µg/kg
- duration of dose dependent efficacy (PAP) ([2]; inhaled, all doses (10, 30, 100 μg/kg nominal dose), 240 min observation interval): ≥ 240 min
- time of maximum effect after start inhalation ([2]; nebulized liquid formulations): about 90 min
- duration of action, times longer compared to Ventavis ([2]; preclinical animal model): more than 6 times

Structure (SMILES): O=C(O)c1ccc(CCN(CCc2ccccc2OCc2ccc(-c3ccc(C(F)(F)F)cc3)cc2Cl)[C@H]2CCCc3nc(C(=O)O)ccc32)cc1 [example 2, (5S)—{[2-(4-Carboxyphenyl)ethyl][2-(2-{[3-chloro-4′-(trifluoromethyl)biphenyl-4-yl]methoxy}phenyl)-ethyl]amino}-5,6,7,8-tetrahydroquinoline-2-carboxylic acid as Monohydrate II]
- PSD X10 [3, 4]: X10: 0.7 μm,
- PSD X50 [3, 4]: X50: 1.9 μm,
- PSD X90 [3, 4]: X90: 5.0 μm
- PSD X10 [3, 5]: X10: 0.4 μm,
- PSD X50 [3, 5]: X50: 1.7 μm,
- PSD X90 [3, 5]: X90: 4.2 μm
- PSD X10 [3, 6]: X10: 0.5 μm,
- PSD X50 [3, 6]: X50: 2.3 μm,
- PSD X90 [3, 6]: X90: 9.6 μm
- PSD X10 [3, 7]: X10: 0.4 μm,
- PSD X50 [3, 7]: X50: 1.8 μm,
- PSD X90 [3, 7]: X90: 4.8 μm
- XRPD form after micronization ([3]; batch of example 2): monohydrate II with partial amorphization
- systemic blood pressure ([1]; 375 μg/kg i.t., within the last hour of the observation interval): slightly affected
- efficacy with regard to PAP reduction as well as systemic BP reduction ([1]; micronized hydrates, 1.5 mg/4 kg (=375 μg/kg) i.t.): comparable efficacy
- BP, % changes vs. prevalues ([1]; time 80 min, 375 μg/kg i.t.): 100.0%
- BP, % changes vs. prevalues ([1]; time 130 min, 375 μg/kg i.t.): 97.0%
- BP, % changes vs. prevalues ([1]; time 140 min, 375 μg/kg i.t.): 97.0%
- BP, % changes vs. prevalues ([1]; time 200 min, 375 μg/kg i.t.): 97.0%
- minimal effective nominal dose (5% reduction in PAP) ([2]; nebulized solution, inhaled): 3 µg/kg

Structure (SMILES): O=C(O)c1ccc(CCN(CCc2ccccc2OCc2ccc(-c3ccc(C(F)(F)F)cc3)cc2Cl)[C@H]2CCCc3nc(C(=O)O)ccc32)cc1 [example 4, (5S)—{[2-(4-Carboxyphenyl)ethyl][2-(2-{[3-chloro-4′-(trifluoromethyl)biphenyl-4-yl]methoxy}phenyl)-ethyl]amino}-5,6,7,8-tetrahydroquinoline-2-carboxylic acid as Monohydrate I]
- stability under micronization conditions ([3]; 100 mm spiral jet mill, pressurized nitrogen): stable
- PSD X10 [3, 8]: X10: 0.7 μm,
- PSD X50 [3, 8]: X50: 2.1 μm,
- PSD X90 [3, 8]: X90: 6.1 μm
